Data taken from PMC5734728, “The JAK2/STAT3 inhibitor pacritinib effectively inhibits patient-derived GBM brain tumor initiating cells in vitro and when used in combination with temozolomide increases survival in an orthotopic xenograft model” (PLoS ONE, 2017).
Read-outs that look alike come from different tables or passages of the source.

Experiments:
BT67 = experiment: alamarBlue BTIC viability assay, BT67; type: cell-based; settings: Homo sapiens; BTIC line BT67, alamarBlue
BT68 = experiment: alamarBlue BTIC viability assay, BT68; type: cell-based; settings: Homo sapiens; BTIC line BT68, alamarBlue
BT69 = experiment: neurosphere assay, BT69; type: cell-based, human; settings: 3 μM
p-STAT3 Y705 = experiment: western blotting of activated STAT3 in BTICs; type: cell-based, human; settings: for STAT3 activation (phosphorylation on tyrosine 705): 3 hours
Procedure: BTIC spheres were enzymatically dissociated as described above and plated at 10^6 cells/2 mL of media. Cells were treated with vehicle (DMSO), pacritinib, TMZ, or a combination of pacritinib and TMZ and pelleted at select time points (3, 24, and 48 hours). For protein extraction, BTICs were lysed in modified radio-immunoprecipitation assay buffer supplemented with Complete Mini protease (Roche) and Halt phosphatase (Thermo Scientific) inhibitor cocktails. Protein concentrations were quantified using the BioRad protein assay; 20 μg of protein were loaded on 6% or 10% sodium dodecyl sulfate polyacrylamide gel electrophoresis (SDS PAGE) gels and transblotted to nitrocellulose membranes. Blots were stained with primary antibodies followed by horseradish peroxidase-conjugated secondary antibodies. Primary antibodies included p-STAT3 Y705 (1:1000; Cell Signaling Technology), STAT3 (1:1000; Cell Signaling Technology), p-Akt S473 (1:1000; Cell Signaling Technology), Akt (1:1000; Cell Signaling Technology), p-p44/42 MAPK (T202/Y204) (1:1000; Cell Signaling Technology), p44/42 MAPK (1:4000; Cell Signaling Technology), poly (ADP-ribose) polymerase (1:1000; Cell Signaling Technology), β-tubulin (1:1000; Cell Signaling Technology), and Actin (1:1000; Santa Cruz Biotechnology). Secondary antibodies included donkey anti-mouse (1:5000; Cell Signaling Technology), donkey anti-goat (1:5000; Millipore), and goat anti-rabbit (1:5000; Cell Signaling Technology). The blots were washed with tris-buffered saline and tween 20 (T-TBS) (50mM Tris, 150mM NaCl, 0.05% Tween 20, pH 7.6) and blocked with tris-buffered saline (TBS) before imaging. Bands were visualized with the SuperSignal West Pico chemiluminescent solution (Thermo Scientific) and an Amersham™ Imager 600 (General Electric).

[1] = five-day pharmacokinetics by LC-MS, serum and brain; type: in vivo, mice; settings: SCID, mouse, five days, mean ± SD, N = 3; for concentration at 300 min: 300 minutes post-dosing; for concentration at 30 min: 30 minutes post-dosing
Procedure: Animal studies were performed following institutional ethical guidelines and protocols approved by the University of Calgary Health Sciences Animal Care Committee, accredited by the Canadian Council on Animal Care (CCAC). Non-tumor bearing mice were treated with 100 or 200 mg/kg doses of pacritinib by oral gavage for five consecutive days. Three mice per group were used. Post-dosing, blood was collected at 30 and 300 minute time points. The serum was separated by centrifugation. Liquid chromatography-mass spectrometry (LC-MS) was performed to determine the serum concentration of pacritinib. To determine brain penetration, brains were harvested and processed at the 300 minute time point following transcardiac perfusion with PBS. Brains were removed and flash frozen at -80°C. Pacritinib accumulation in the brain was analyzed using LC-MS.

[2] = human liver microsomal stability assay; type: in vitro ADME; settings: human liver microsomes, 30-minute incubation
Procedure: Working stocks were initially diluted to a concentration of 40 μM in 0.1 M potassium phosphate buffer before addition to the reaction vials. Pooled mouse (CD-1, male) or human (50 donors) liver microsomes were utilized at a final concentration of 0.5 mg/mL. Duplicate wells were used for each time point (0 and 30 minutes). Reactions were carried out at 37°C in a shaker, and the final concentration of DMSO was kept constant at 0.01%. The final volume for each reaction was 100 μL, which included the addition of an NADPH-Regeneration solution (NRS) mix. The NRS mix was comprised of glucose 6-phosphate dehydrogenase (0.4 U/mL), NADP+ (1.3 mM), MgCl2 (3.3 mM), and glucose 6-phosphate (3.3 mM) in assay mixtures. Upon completion of the 30-minute time point, reactions were terminated by the addition of 1.5-volumes (150 μL) of ice-cold acetonitrile with 0.5% formic acid and internal standard. Samples were then centrifuged at 4,000 rpm for 10 minutes to remove debris and precipitated protein. Approximately 150 μL of supernatant was subsequently transferred to a new 96-well microplate for LC-MS analysis. Narrow-window mass extraction LC-MS analysis was performed for all samples using a Waters Xevo quadrupole time-of-flight (QToF) mass spectrometer and an ACQUITY UPLC system, to determine relative peak areas of parent compound.

[3] = system: BT143 orthotopic xenograft; experiment: Kaplan-Meier survival, orthotopic BT143 xenograft; type: in vivo; settings: BT143 xenografted mice; p < 0.4622 log-rank
BT12 = experiment: alamarBlue BTIC viability assay, BT12; settings: Homo sapiens, BT-12, read-out: IC50 (viability)
Procedure: (§1) Accumax (eBioscience) was used to enzymatically dissociate BTIC spheres to single cells. Cells were seeded at 1000 cells per well in 96-well plates and treated with vehicle (DMSO) or drug, 24 hours after plating. BTIC viability was assessed after 7–14 days, once spheres were formed in control wells, by performing the alamarBlue™ (Invitrogen) assay per the manufacturer’s instructions. In brief, the alamar dye was added to each well and plates were read 6 hours later. Fluorescence intensity (excitation 540 nm; emission 590 nm) was measured on a SpectraMax M Series Multi-Mode Microplate reader. […] All experiments were performed in triplicate with a minimum of 3 wells per condition.
(§2) BTICs were treated with suboptimal doses of 1 μM pacritinib (CTI Biopharma), 10 μg/mL TMZ (Sigma), or a combination of pacritinib and TMZ. […] Percent inhibition was determined by normalizing each well to the control well (0.1% DMSO).

[4] = system: patient-derived GBM BTIC cultures; experiment: alamarBlue viability assay, panel of BTIC cultures
Procedure: as §1, §2

C1=C/COCc2cc(ccc2OCCN2CCCC2)Nc2nccc(n2)-c2cccc(c2)COC/1 [pacritinib]
IC50 (BT67): 1080 nM | IC50 (BT68): 1220 nM | sphere formation (BT69): completely abolished sphere formation | p-STAT3 Y705 (p-STAT3 Y705; BT53, 48 hours, 1 μM pacritinib, 10 μg/mL TMZ or both): dramatically reduced phosphorylation | STAT3 activation (phosphorylation on tyrosine 705) (p-STAT3 Y705; BT53, low micromolar concentrations): decreased STAT3 activation | activated STAT3 (phosphorylation on tyrosine 705) (p-STAT3 Y705; BT69, 3 hours): decreased activated STAT3 | STAT3 activation (phosphorylation on tyrosine 705) (p-STAT3 Y705; BT147, 1 μM): strongly decreased STAT3 activation | concentration at 300 min ([1]; brain, 100 mg/kg oral gavage, read-out: [Brain]): 910 ± 61 nM | concentration at 300 min ([1]; brain, 200 mg/kg oral gavage, read-out: [Brain]): 840 ± 20 nM | concentration at 30 min ([1]; serum, 100 mg/kg oral gavage): 2.66 ± 0.72 µM | concentration at 300 min ([1]; serum, 100 mg/kg oral gavage, read-out: [Serum]): 510 ± 140 nM | concentration at 30 min ([1]; serum, 200 mg/kg oral gavage): 12.6 ± 0.98 µM | concentration at 300 min ([1]; serum, 200 mg/kg oral gavage, read-out: [Serum]): 430 ± 120 nM | stability rating [2]: Stable | remaining at 0.5 h, 1 μM ([2]; 1 μM): 76.2 ± 7.9% | efficacy of treatment alone (Kaplan-Meier survival) [3]: no efficacy | IC50 (BT12): 1660 nM | IC50 ([4]; Homo sapiens, read-out: IC50 values for the eleven BTIC cultures tested): 620 to 1660 nM | viability reduced ([4]; at 1.5 μM, in 10/11 BTIC cultures tested): 50%
